According to patent US10294202B2, “Pyrrolidinones as herbicides” (FMC Corporation, priority 2013, dated 2019):

Key:
barnyardgrass [1] = assay: Test C flooded paddy test; type: in vivo, Echinochloa crus-galli; conditions: Flood
Description: (§1) Plant species in the flooded paddy test consisted of rice (Oryza sativa), sedge, umbrella (small-flower umbrella sedge, Cyperus difformis), ducksalad (Heteranthera limosa), and barnyardgrass (Echinochloa crus-galli) grown to the 2-leaf stage for testing. At time of treatment, test pots were flooded to 3 cm above the soil surface, treated by application of test compounds directly to the paddy water, and then maintained at that water depth for the duration of the test. Treated plants and controls were maintained in a greenhouse for 13 to 15 days, after which time all species were compared to controls and visually evaluated. Plant response ratings, summarized in Table C, are based on a scale of 0 to 100 where 0 is no effect and 100 is complete control. A dash (-) response means no test result.

giant foxtail = assay: Test A pre-/postemergence herbicide test; type: in vivo, Setaria faberii
In short: (§2)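 Visual injury ratings, 0 = no effect, 100 = complete control, taken ~10 days after treatment against untreated greenhouse controls. Preemergence: directed soil spray onto seeded loam/sand pots. Postemergence: spray onto plants at one- to two-leaf stage, 2–10 cm tall.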

morningglory = assay: Test A pre-/postemergence herbicide test; type: in vivo, Ipomoea spp.; conditions: 1000 g ai/ha
In short: as §2

pigweed = assay: Test A pre-/postemergence herbicide test; type: in vivo, Amaranthus retroflexus
In short: as §2

crabgrass, large = assay: Test A pre-/postemergence herbicide test; type: in vivo, Digitaria sanguinalis; conditions: 1000 g ai/ha
In short: as §2

velvetleaf = assay: Test A pre-/postemergence herbicide test; type: in vivo, Abutilon theophrasti; conditions: 1000 g ai/ha
In short: as §2

rice [2] = assay: Test C flooded paddy test; type: in vivo, Oryza sativa; conditions: Flood
Description: as §1

wheat = assay: Test A pre-/postemergence herbicide test; type: in vivo, Triticum aestivum
In short: as §2

corn = assay: Test A pre-/postemergence herbicide test; type: in vivo, Zea mays
In short: as §2

ducksalad [3] = assay: Test C flooded paddy test; type: in vivo, Heteranthera limosa; conditions: Flood
Description: as §1

barnyardgrass [4] = assay: Test A pre-/postemergence herbicide test; type: in vivo, Echinochloa crus-galli
In short: as §2

sedge, umbrella [5] = assay: Test C flooded paddy test; type: in vivo, Cyperus difformis; conditions: Flood
Description: as §1

barnyardgrass [6] = assay: Test B flooded paddy test; type: in vivo, Echinochloa crus-galli; conditions: 500 g ai/ha, Flood; scale of 0 to 100 where 0 is no effect and 100 is complete control
In short: (§3)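 First, plants reach the 2-leaf stage; next, pots are flooded to 3 cm and compound is delivered into the water; finally, after 13 to 15 greenhouse days at constant depth, injury is graded visually from 0 to 100 against controls.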

kochia = assay: Test A pre-/postemergence herbicide test; type: in vivo, Kochia scoparia; conditions: for Plant response rating, Kochia: 0 to 100 scale
In short: as §2

sedge, umbrella [7] = assay: Test B flooded paddy test; type: in vivo, Cyperus difformis; conditions: 500 g ai/ha, Flood; scale of 0 to 100 where 0 is no effect and 100 is complete control
In short: as §3

ryegrass, Italian = assay: Test A pre-/postemergence herbicide test; type: in vivo, Lolium multiflorum; conditions: for Plant response rating, Ryegrass, Italian: 0 to 100 scale
In short: as §2

ragweed = assay: Test A pre-/postemergence herbicide test; type: in vivo, Ambrosia elatior; conditions: for Plant response rating, Ragweed: 0 to 100 scale
In short: as §2

ducksalad [8] = assay: Test B flooded paddy test; type: in vivo, Heteranthera limosa; conditions: 500 g ai/ha, Flood; scale of 0 to 100 where 0 is no effect and 100 is complete control
In short: as §3

blackgrass = assay: Test A postemergence herbicide test; type: in vivo, Alopecurus myosuroides
In short: (§4)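 Potted in loam soil/sand blend; postemergence application at 1–2 leaf stage (2–10 cm). Greenhouse ~10 d. Visual injury vs untreated, 0–100 scale; 100 = complete control.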

rice [9] = assay: Test B flooded paddy test; type: in vivo, Oryza sativa; conditions: 500 g ai/ha, Flood; scale of 0 to 100 where 0 is no effect and 100 is complete control
In short: as §3

galium = assay: Test A postemergence herbicide test; type: in vivo, Galium aparine
In short: as §4

[10] = 31 g ai/ha, scale of 0 to 100 where 0 is no effect and 100 is complete control, 13 to 15 days
[11] = 62 g ai/ha, scale of 0 to 100 where 0 is no effect and 100 is complete control, 13 to 15 days
[12] = 125 g ai/ha, scale of 0 to 100 where 0 is no effect and 100 is complete control, 13 to 15 days
[13] = Postemergence, 1000 g ai/ha, 0 to 100 scale (0 no effect, 100 complete control)
[14] = Preemergence, 1000 g ai/ha, visual rating on 0 to 100 scale (0 no effect, 100 complete control), approx. 10 days
[15] = Postemergence, 0 to 100 scale (0 no effect, 100 complete control)
[16] = Preemergence, visual rating on 0 to 100 scale (0 no effect, 100 complete control), approx. 10 days
[17] = 125 g ai/ha, visual rating, 0 to 100 scale, 0 no effect, 100 complete control, approximately 10 days, preemergence
[18] = Postemergence, 125 g ai/ha, 0 to 100 scale, 0 is no effect, 100 is complete control
[19] = 125 g ai/ha, visual rating, 0 no effect, 100 complete control, approximately 10 days, preemergence
[20] = Postemergence, 125 g ai/ha, 0 is no effect, 100 is complete control
[21] = preemergence, 500 g ai/ha, 0 is no effect and 100 is complete control
[22] = 125 g ai/ha, 0 to 100 scale, 0 is no effect, 100 is complete control

O=C1NCC(c2ccc(F)c(F)c2)C1C(=O)Nc1cccc(Cl)c1 (racemic) [Compound 18]
Plant response rating, Barnyardgrass (barnyardgrass [1]; [10]): 0 | Plant response rating, Barnyardgrass (barnyardgrass [1]; [11]): 0 | Plant response rating, Barnyardgrass (barnyardgrass [1]; [12]): 0 | Plant response rating, Barnyardgrass (barnyardgrass [1]; 250 g ai/ha, scale 0 to 100): 0 | Plant response rating, Foxtail, Giant (giant foxtail; [13]): 70 | Plant response rating, Foxtail, Giant (giant foxtail; [14]): 80 | Plant response rating, Morningglory (morningglory; [15]): 0 | Plant response rating, Morningglory (morningglory; [16]): 0 | Plant response rating, Pigweed (pigweed; [13]): 0 | Plant response rating, Pigweed (pigweed; [14]): 0 | Plant response rating, Crabgrass, Large (crabgrass, large; [15]): 70 | Plant response rating, Crabgrass, Large (crabgrass, large; [16]): 80 | Plant response rating, Velvetleaf (velvetleaf; [15]): 0 | Plant response rating, Velvetleaf (velvetleaf; [16]): 0 | Plant response rating, Rice (rice [2]; [10]): 0 | Plant response rating, Rice (rice [2]; [11]): 0 | Plant response rating, Rice (rice [2]; [12]): 0 | Plant response rating, Rice (rice [2]; 250 g ai/ha, scale 0 to 100): 0 | Plant response rating, Wheat (wheat; [13]): 0 | Plant response rating, Wheat (wheat; [14]): 0 | Plant response rating, Corn (corn; [13]): 0 | Plant response rating, Corn (corn; [14]): 0 | Plant response rating, Ducksalad (ducksalad [3]; [10]): 0 | Plant response rating, Ducksalad (ducksalad [3]; [11]): 0 | Plant response rating, Ducksalad (ducksalad [3]; [12]): 0 | Plant response rating, Ducksalad (ducksalad [3]; 250 g ai/ha, scale 0 to 100): 0 | Plant response rating, Barnyardgrass (barnyardgrass [4]; [13]): 50 | Plant response rating, Barnyardgrass (barnyardgrass [4]; [14]): 80 | Plant response rating, Sedge, Umbrella (sedge, umbrella [5]; [10]): 0 | Plant response rating, Sedge, Umbrella (sedge, umbrella [5]; [11]): 0 | Plant response rating, Sedge, Umbrella (sedge, umbrella [5]; [12]): 0 | Plant response rating, Sedge, Umbrella (sedge, umbrella [5]; 250 g ai/ha, scale 0 to 100): 0

O=C1NCC(c2cccc(C(F)F)c2)C1C(=O)Nc1ccccc1F (racemic) [Compound 163]
Plant response rating, Barnyardgrass (barnyardgrass [6]): 90 | Plant response rating, Foxtail, Giant (giant foxtail; [17]): 90 | Plant response rating, Foxtail, Giant (giant foxtail; [18]): 70 | Foxtail, Giant plant response rating (0 to 100 scale, 0 is no effect, 100 is complete control) (giant foxtail; Postemergence, 500 g ai/ha): 80 | Plant response rating, Foxtail, Giant (giant foxtail; preemergence, 500 g ai/ha, 0 to 100 scale): 90 | Plant response rating, Kochia (kochia; [19]): 0 | Plant response rating, Kochia (kochia; [20]): 0 | Kochia plant response rating (0 to 100 scale, 0 is no effect, 100 is complete control) (kochia; Postemergence, 500 g ai/ha): 0 | Plant response rating, Kochia (kochia; [21]): 50 | Plant response rating, Sedge, Umbrella (sedge, umbrella [7]): 0 | Plant response rating, Ryegrass, Italian (ryegrass, Italian; [19]): 0 | Plant response rating, Ryegrass, Italian (ryegrass, Italian; [20]): 0 | Ryegrass, Italian plant response rating (0 to 100 scale, 0 is no effect, 100 is complete control) (ryegrass, Italian; Postemergence, 500 g ai/ha): 30 | Plant response rating, Ryegrass, Italian (ryegrass, Italian; [21]): 0 | Plant response rating, Ragweed (ragweed; [19]): 0 | Plant response rating, Ragweed (ragweed; [20]): 0 | Ragweed plant response rating (0 to 100 scale, 0 is no effect, 100 is complete control) (ragweed; Postemergence, 500 g ai/ha): 20 | Plant response rating, Ragweed (ragweed; [21]): 40 | Plant response rating, Pigweed (pigweed; [17]): 40 | Plant response rating, Pigweed (pigweed; [18]): 0 | Pigweed plant response rating (0 to 100 scale, 0 is no effect, 100 is complete control) (pigweed; Postemergence, 500 g ai/ha): 20 | Plant response rating, Pigweed (pigweed; preemergence, 500 g ai/ha, 0 to 100 scale, 0 is no effect and 100 is complete control): 40 | Plant response rating, Ducksalad (ducksalad [8]): 100 | Plant response rating, Blackgrass (blackgrass; [22]): 50 | Blackgrass plant response rating (0 to 100 scale, 0 is no effect, 100 is complete control) (blackgrass; 500 g ai/ha): 60 | Plant response rating, Rice (rice [9]): 15 | Plant response rating, Wheat (wheat; [18]): 20 | Wheat plant response rating (0 to 100 scale, 0 is no effect, 100 is complete control) (wheat; Postemergence, 500 g ai/ha): 60 | Plant response rating, Galium (galium; [22]): 20 | Galium plant response rating (0 to 100 scale, 0 is no effect, 100 is complete control) (galium; 500 g ai/ha): 60 | Plant response rating, Corn (corn; [18]): 10 | Corn plant response rating (0 to 100 scale, 0 is no effect, 100 is complete control) (corn; Postemergence, 500 g ai/ha): 40 | Plant response rating, Barnyardgrass (barnyardgrass [4]; [17]): 80 | Plant response rating, Barnyardgrass (barnyardgrass [4]; [18]): 90 | Barnyardgrass plant response rating (0 to 100 scale, 0 is no effect, 100 is complete control) (barnyardgrass [4]; Postemergence, 500 g ai/ha): 90 | Plant response rating, Barnyardgrass (barnyardgrass [4]; preemergence, 500 g ai/ha, 0 to 100 scale (0 no effect, 100 complete control)): 90
